Measurements from US20180345047A1, “METHOD OF PROMOTING HAIR GROWTH” (Yeda Research and Development Co. Ltd., priority 2015, published 2018).

Assays:
[1] = tested on: senescent epidermal cells; assay: Elimination of senescent cells in the skin epidermis of p14ARF-expressing mice (SA-β-Gal, p14ARF, cleaved caspase-3 stains); assay type: in vivo, K5-rtTA/tet-p14 mice; conditions: 75 mg/kg intraperitoneally
Protocol: (§1) Mouse experiments: K5-rtTA/tet-p14, described in (Toakrsly-Amiel et al.) were held on a mixed C57B1/129sv background. Mice received doxycycline (2 mg/ml) in the drinking water at 3 weeks of age for activation of the p14ARF transgene. Sibling tet-p14 single transgene control mice received doxycycline for the same period. After four weeks of transgene activation, ABT-737 (75 mg/kg in 30% propylene glycol, 5% Tween 80, 3.3% dextrose in water pH 4-5) or vehicle was injected into p14ARF-expressing mice intraperitoneally for 2 or 4 consecutive days. Mice were then shaved, sacrificed and back skins were paraffin embedded for immunohistology or frozen in OCT solution for cryosectioning and SA-β-gal stains.
Immunohistology: Immunohistology was performed according to standard procedures on 5 μm paraffin sections, using Peroxidase Substrate kits (Vector) or fluorescently labeled secondary antibodies (Jackson). Antibodies used: p14ARF (Abcam), CC3 (Cell Signaling), Ki67 (Labvision) and K15 (Santa Cruz). […] Positive cells were scored from >10 microscopic fields in each sample either by direct microscopic observation (SA-β-gal, p14) or on collected images (all other stains).
The present inventors set out to test whether the survival signals provided by Bcl-2 family members are necessary for the survival and retention of senescent cells in tissues. […] Concomitantly, the percentage of epidermal cells in which the transgenic p14^ARF protein could be detected was reduced (FIGS. 1D-E), indicating preferred elimination of transgene-expressing cells. Increased levels of apoptosis were detected in the epidermis after 2 days of ABT-737 treatment (FIGS. 1F-G), consistent with increased apoptosis as the mechanism of senescent cell elimination. […]

[2] = tested on: hair-follicle stem cells in the bulge; assay: Hair-follicle bulge stem cell proliferation and number in p14ARF-expressing mice (Ki67/K15 stain, CD34/CD49f FACS); assay type: in vivo, K5-rtTA/tet-p14 mice; conditions: vs vehicle
Protocol: as §1
Immunohistology: Immunohistology was performed according to standard procedures on 5 μm paraffin sections, using Peroxidase Substrate kits (Vector) or fluorescently labeled secondary antibodies (Jackson). Antibodies used: p14ARF (Abcam), CC3 (Cell Signaling), Ki67 (Labvision) and K15 (Santa Cruz). For Senescence-associated β-Galactosidase (SA-β-gal) stains, 10-12 μm cryosections of OCT-embedded mouse skins were fixed in 0.5% glutaraldehyde for 15 minutes, stained over night at 37° C. with 40 mM phosphate buffer pH=6 with 5 mM K4Fe(CN)6, 5 mM K3Fe(CN)6, 150 mM NaCl, 2 mM MgCl2 and 1 mg/ml X-gal, washed in PBS, fixed in 95% ethanol for 15 minutes, counterstained with nuclear fast red, dehydrated and mounted. Bright field images were collected using an Olympus CX41 and DS-Fi1 camera and processed using NIS Elements software (Nikon). Fluorescent images were taken using an Olympus FV1000 confocal microscope. Positive cells were scored from >10 microscopic fields in each sample either by direct microscopic observation (SA-β-gal, p14) or on collected images (all other stains).
Upon p14^ARF activation in mice at 3 weeks of age nearly all hair follicles are arrested in the resting (telogen) state, and only rare stem cells in the bulge express the proliferation marker Ki67^36 (FIGS. 5H-I). […] This effect was also evident three days after treatment was stopped (FIGS. 2A-B). […]

Question: `CN(C)CC[C@H](CSc1ccccc1)Nc1ccc(S(=O)(=O)NC(=O)c2ccc(N3CCN(Cc4ccccc4-c4ccc(Cl)cc4)CC3)cc2)cc1[N+](=O)[O-]` [ABT-737] was tested. Which “number of senescent cells in the epidermis, determined by SA-β-Gal staining” value ([1]; 4 consecutive days, after 4 weeks p14ARF activation, relative to vehicle-treated mice) did it give?
Answer: dramatically reduced

Question: And the “percentage of epidermal cells in which the transgenic p14ARF protein could be detected” value ([1]; 2 day treatment, vs vehicle)?
Answer: reduced

Question: And the “levels of apoptosis in the epidermis (cleaved caspase-3)” value ([1]; after 2 days of treatment, vs vehicle)?
Answer: Increased

Question: What about the “number of CD34+/CD49f high bulge stem cells” value ([2]; FACS of epidermal cells after 2 days of treatment) of the same compound?
Answer: increased

Question: And the “increase in proliferating (Ki67+) hair-follicle stem cells in the bulge after end of treatment” value ([2]; treated 2 days, three days after treatment was stopped)?
Answer: also evident

Question: And the “numbers of proliferating (Ki67+) hair-follicle stem cells in the bulge” value ([2]; treatment after 2-4 weeks of p14ARF induction, 75 mg/kg intraperitoneally)?
Answer: increase
